Here are results for three compounds from patent US20160243075A2, “TETRAHYDROCANNABIVARIN (THC) FOR USE IN THE PROTECTION OF PANCREATIC ISLET CELLS” (GW Pharma Limited, priority 2014, published 2016).

“Also recorded” adds a separate entry of the source.

A short description of experiment [1]: Bodyweight change and food intake of db/db mice over the 28 day study (Example 1). Format: in vivo. The note with it: male db/db mice, 10 mg/kg daily. How it is done: (§1) The phytocannabinoids CBD (10 mg/kg) and THCV (10 mg/kg) were tested along with AM 251 (10 mg/kg) which was used as a positive control.
(§2) On day 1 dosing commenced for groups A to D as outlined in Table 1.1 above. Animals were dosed daily at 17:00.

The nature of experiment [2]: Blood samples for glucose and insulin in db/db mice (Example 1). Format: in vivo. How it is done: as §1, §2
The test system of experiment [3] is Glucagon-Like Peptide 1 (GLP-1). In words: Serum glucagon-like peptide 1 (GLP-1) levels, change from baseline, subjects with Type 2 diabetes (Example 3). The settings on record: oral 5 mg THCV twice daily, FIG. 18. The experiment is classed as in vivo, human. The source says: Laboratory assessments included; physical examination; markers of vascular function; markers of adipocyte function including leptin and adiponectin; markers of inflammation including cytokines; retinol binding protein (RBP4) concentration; orexin type A (Orexin A) concentration; gut signalling hormone (Gastric Inhibitory Peptide (GIP), Glucagon-like peptide-1 (GLP-1), ghrelin) concentrations; ketone bodies; and endocannabinoid plasma levels.
(§3) The study took place over 15-19 weeks (1-5 week baseline and 13 week treatment period and 1 week follow-up), and was a multicentre, randomised, double blind, placebo controlled, parallel group pilot study which evaluated the test compounds on lipid parameters in subjects with Type 2 diabetes.
(§4) Further study visits took place at the end of Week 4 of treatment (Visit 3, Day 29), and again at the end of treatment at Week 13 (Visit 5, Day 92). Subjects were asked to fast overnight before Visits 1 (or 1B), 2 and 5 (minimum 8 hours). A telephone assessment was also performed at Day 57 (Visit 4) and at Week 14 (Visit 6, Day 99) for safety follow-up.
As this was a pilot study, a formal sample size calculation was not required. Each treatment group consisted of 10 subjects. There was five treatment groups 1:1 and 20:1 ratio of CBD:THCV plus CBD alone, THCV alone and placebo.

For the next experiment, the system named is pancreatic islet cells. The experiment can be described thus: Histology/morphology of insulin-stained pancreas in diabetic db/db mice (Example 1). The experiment is classed as in vivo. The settings on record: male db/db mice, 10 mg/kg daily. How it is done:
as §1
At the start of the study the Group E animals were sacrificed and a terminal blood sample was taken. In addition four of the animals pancreases were sampled for determination of β-cell area, islet size and β-cell mass by […].
as §2
At the end of the study the animals were sacrificed and a terminal blood sample was taken. In addition four of the animals pancreases were sampled for determination of islet β-cell area, islet size and islet β-cell mass by […].
The pancreases were stained for insulin and the pancreatic islet cells were examined under a microscope to determine the amount of insulin in the cells.

For the next experiment, the system named is beta cell function. The experiment can be described thus: HOMA2 beta cell function, change from baseline, subjects with Type 2 diabetes (Example 3). Format: in vivo, human. The note with it: 5 mg THCV twice daily, end of study period, FIG. 17.
From the text: (§5) Other measurements including: lipid parameters; glucose control (fasting plasma glucose, glucose tolerance, serum fructosamine, glycosylated haemoglobin A1c (HbA1c) (whole blood)); Insulin sensitivity (insulin resistance); body weight & body mass index (BMI); adipose tissue distribution (total % body fat content, waist circumference, neck circumference, waist-to-hip ratio, visceral adiposity, liver triglyceride content); and appetite 11 point numerical rating scale (0-10 NRS).
as §3, §4
(§6) As this was a pilot study, a formal sample size calculation was not required. Each treatment group consisted of 10 subjects. There was five treatment groups 1:1 and 20:1 ratio of CBD:THCV plus CBD alone, THCV alone and placebo. […]

Experiment [4] in a line: Oral glucose tolerance test in subjects with Type 2 diabetes at Visit 5 (Example 3 pilot study). The experiment is classed as in vivo, human. The note with it: 5 mg THCV twice daily, Visit 5 (Week 13), compared to placebo.
From the text: There were four arms in this study plus a placebo comparator. These were a 1:1 and 20:1 ratio of CBD:THCV, CBD alone and THCV alone. Assessment of the impact of each treatment on different parameters was made. Measurements were taken of high density lipoprotein (HDL) cholesterol, total cholesterol, low density lipoprotein (LDL) cholesterol, HDL/LDL ratio, serum triglycerides, apolipoprotein markers (Apo A & Apo B) and determination of ApoA/Apo B ratio.
as §5, §3
Further study visits took place at the end of Week 4 of treatment (Visit 3, Day 29), and again at the end of treatment at Week 13 (Visit 5, Day 92). […]

A short description of experiment [5]: HOMA2 insulin sensitivity, change from baseline, subjects with Type 2 diabetes (Example 3). Format: in vivo, human. The settings on record: 5 mg THCV twice daily, end of study period, FIG. 16.
From the text: as §5, §3, §4, §6

In the next experiment the target is CB-1 receptor (Homo sapiens, UniProt P21554). The note with it: receptor binding studies, GB 2434097; cited from earlier work.
CB-1 receptor, sequence (P21554 whole entry): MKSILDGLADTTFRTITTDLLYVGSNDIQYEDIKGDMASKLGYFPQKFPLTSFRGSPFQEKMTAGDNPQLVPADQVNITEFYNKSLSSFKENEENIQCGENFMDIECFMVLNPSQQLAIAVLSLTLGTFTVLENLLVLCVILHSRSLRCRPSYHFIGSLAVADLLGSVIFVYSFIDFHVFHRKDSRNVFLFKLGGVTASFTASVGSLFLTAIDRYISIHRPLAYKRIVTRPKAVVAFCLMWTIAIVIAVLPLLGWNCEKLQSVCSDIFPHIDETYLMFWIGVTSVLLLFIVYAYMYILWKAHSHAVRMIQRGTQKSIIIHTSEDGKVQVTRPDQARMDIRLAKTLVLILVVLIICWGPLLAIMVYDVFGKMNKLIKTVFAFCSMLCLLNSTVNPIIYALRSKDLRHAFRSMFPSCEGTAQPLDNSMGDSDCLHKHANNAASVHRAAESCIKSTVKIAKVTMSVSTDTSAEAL

In the case of `Cc1c(C(=O)NN2CCCCC2)nn(-c2ccc(Cl)cc2Cl)c1-c1ccc(I)cc1` [AM 251], the food intake entry in experiment [1] was “slightly lower”.

On to `C=C(C)[C@@H]1CCC(C)=C[C@H]1c1c(O)cc(CCCCC)cc1O` [CBD, cannabidiol], for which, in experiment [1] (FIG. 6), the “weight gain (bodyweight change over the study period)” value is listed as “increased weight gain”.

Turning to `CCCc1cc(O)c2c(c1)OC(C)(C)[C@@H]1CCC(C)=C[C@@H]21` [THCV, Tetrahydrocannabivarin], the “blood glucose concentration during a 24 hour period” value in experiment [2] (male db/db mice, 10 mg/kg daily, FIG. 7) is reported as “more controlled during a 24 hour period”. Further, in experiment [2] (male db/db mice, 10 mg/kg daily, conclusion of Example 1), the “reduction in blood glucose” value was “without having a profound reduction in blood glucose”. In experiment [2] (rodent model of diabetes), the fasting insulin result is “reduction in fasting insulin”. Further, the “change from baseline in mean serum GLP-1 levels” value in experiment [3] is listed as “highest increase in GLP-1”. For the same compound, the “retention of insulin in the pancreatic islet (insulin staining, histology)” value in the experiment with pancreatic islet cells (28 day study, FIGS. 2-5, 10 mg/kg) is “greater retention of insulin in the pancreatic islet than both AM251 and CBD; also recorded: statistically more insulin present in the pancreatic islets”. In the experiment on pancreatic islet cells (end of study, FIG. 8), the “pancreatic islet beta cell mass (morphological analysis)” value was “higher in the THCV treated animals than in the vehicle and CBD and AM251 treated groups”. Besides, in the experiment with beta cell function, the “HOMA2 beta cell function, mean change from baseline” value is recorded as “much increased beta cell function compared to all the other groups”. The “concentration of insulin during oral glucose tolerance test, mean change from baseline” value in experiment [4] (FIG. 14) is “increases over the first hour and then reduces down to the same level as the placebo after 2 hours”. Also, the “concentration of blood glucose during oral glucose tolerance test, mean change from baseline” value in experiment [4] (FIG. 15) is given as “quickly reducing the blood glucose level compared to placebo”. For the same compound, the food intake result in experiment [1] is on record as “slightly lower”. For the same compound, the “HOMA2 insulin sensitivity, mean change from baseline” value in experiment [5] is “increased sensitivity to insulin”. Besides, at CB-1 receptor, the CB-1 receptor pharmacology entry is reported as “neutral antagonist”.
